Experimental data: patent US11390621B2, “Chiral indole compounds and their use” (ARIAGEN, INC., priority 2019, dated 2022)
Values joined by “and” are separate entries in the source; they are usually repeats but may differ in a detail not shown here. Equal entries are not always repeated.

Columns and labels:
AhR = molecular target: T1, AhR (Homo sapiens, UniProt P35869); experiment: EROD assay (7-ethoxy-resorufin-O-deethylase; CYP1A1 activity) in human HepG2 cells; type: cell-based; conditions: for EC90: HepG2, human HepG2 cells
T1 construct: host or cells: human HepG2 cells
T1 sequence (P35869 11-848): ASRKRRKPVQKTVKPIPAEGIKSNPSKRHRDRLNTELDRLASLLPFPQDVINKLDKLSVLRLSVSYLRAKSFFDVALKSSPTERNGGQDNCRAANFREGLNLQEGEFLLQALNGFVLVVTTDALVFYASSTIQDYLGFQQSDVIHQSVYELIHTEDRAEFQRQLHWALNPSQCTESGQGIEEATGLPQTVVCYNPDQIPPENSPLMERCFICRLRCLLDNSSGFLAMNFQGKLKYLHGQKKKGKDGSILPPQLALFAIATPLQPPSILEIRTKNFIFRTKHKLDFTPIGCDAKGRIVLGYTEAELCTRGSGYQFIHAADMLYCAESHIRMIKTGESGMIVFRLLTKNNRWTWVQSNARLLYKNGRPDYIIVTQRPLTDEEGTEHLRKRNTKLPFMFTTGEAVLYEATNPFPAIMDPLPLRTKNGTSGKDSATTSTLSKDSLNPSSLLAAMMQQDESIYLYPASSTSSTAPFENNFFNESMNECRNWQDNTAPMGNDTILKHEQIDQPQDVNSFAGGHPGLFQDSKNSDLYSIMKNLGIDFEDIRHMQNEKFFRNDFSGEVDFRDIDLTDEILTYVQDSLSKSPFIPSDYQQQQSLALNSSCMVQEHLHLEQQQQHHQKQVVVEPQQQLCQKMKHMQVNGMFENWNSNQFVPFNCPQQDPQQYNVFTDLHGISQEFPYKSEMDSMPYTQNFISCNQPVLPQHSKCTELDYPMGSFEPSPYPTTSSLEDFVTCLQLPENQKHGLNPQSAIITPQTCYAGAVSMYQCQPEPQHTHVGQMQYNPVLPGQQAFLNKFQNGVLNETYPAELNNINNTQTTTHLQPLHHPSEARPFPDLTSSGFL
Experimental: CYP1A1 induction is under the control of the AhR signaling pathway. This Example describes an in vitro assay (7-ethoxy-resorufin-O-deethylase (EROD) assay) that evaluated the AhR modulating activities of the indole compounds described herein. In this assay, the indole compounds were incubated with human HepG2 cells or mouse Hepa1-6 cells. The activity of CYP1A1 in the cells was measured by the conversion of substrate 7-ethoxyresorufin, with the readout being a fluorescence signal associated with the conversion product. The EC50 values of the indole compounds as well as the maximum luminescence induced by them in the assay were determined.
Human HepG2 cells were obtained from Sigma Aldrich (Catalog 85011430-1VL).
Human HepG2 cells were grown to 60-80% confluency in tissue culture flasks, lifted with non-enzymatic cell dissociation solution (cell stripper), seeded in a 384-well plate at 5,000 cells per well, treated with the test compounds, and incubated for 20 hours overnight at 37° C. The treatment medium was removed and a solution of substrate 7-ethoxyresorufin (ETX) was added to initiate the reaction. The plate was incubated at 37° C. for 30 minutes. The reaction was subsequently terminated by adding tempered methanol. Fluorescent emission was measured at 590 nm with excitation at 530 nm in a FLEXSTATION III instrument (Molecular Devices).

CYP3A4 = molecular target: T2, CYP3A4 (Homo sapiens, UniProt P08684); experiment: CYP profiling: human liver microsomes with CYP3A4 inhibitor ketoconazole; type: in vitro ADME; parameters: % Compound Metabolized at 30 min, CYP3A4 Inhibitor: concentration or dose not given beside the values; conditions: HLMs; for % Inhibition Relative to Negative Control, 3A4: 30 min
T2 construct: from tissue; host or cells: human liver microsomes
Experimental: (§1) In order to investigate the contributions of CYP1A2 and CYP3A4 to the metabolism of the compounds of the present disclosure, human liver microsomes were incubated with the test compounds for 30 minutes in the presence of selective chemical inhibitors furafylline (1A2) and ketoconazole (3A4).

[1] = CYP profiling: turnover in human liver microsomes, 30 min, no inhibitor; type: in vitro ADME; parameters: % Compound Metabolized at 30 min, No Inhibitor: concentration or dose not given beside the values; conditions: HLMs
Experimental: as §1

CYP1A2 = molecular target: T3, CYP1A2 (Homo sapiens, UniProt P05177); experiment: CYP profiling: human liver microsomes with CYP1A2 inhibitor furafylline; type: in vitro ADME; parameters: % Compound Metabolized at 30 min, CYP1A2 Inhibitor: concentration or dose not given beside the values; conditions: HLMs; for % Inhibition Relative to Negative Control, 1A2: 30 min
T3 construct: from tissue; host or cells: human liver microsomes
T3 sequence (P05177 1-516): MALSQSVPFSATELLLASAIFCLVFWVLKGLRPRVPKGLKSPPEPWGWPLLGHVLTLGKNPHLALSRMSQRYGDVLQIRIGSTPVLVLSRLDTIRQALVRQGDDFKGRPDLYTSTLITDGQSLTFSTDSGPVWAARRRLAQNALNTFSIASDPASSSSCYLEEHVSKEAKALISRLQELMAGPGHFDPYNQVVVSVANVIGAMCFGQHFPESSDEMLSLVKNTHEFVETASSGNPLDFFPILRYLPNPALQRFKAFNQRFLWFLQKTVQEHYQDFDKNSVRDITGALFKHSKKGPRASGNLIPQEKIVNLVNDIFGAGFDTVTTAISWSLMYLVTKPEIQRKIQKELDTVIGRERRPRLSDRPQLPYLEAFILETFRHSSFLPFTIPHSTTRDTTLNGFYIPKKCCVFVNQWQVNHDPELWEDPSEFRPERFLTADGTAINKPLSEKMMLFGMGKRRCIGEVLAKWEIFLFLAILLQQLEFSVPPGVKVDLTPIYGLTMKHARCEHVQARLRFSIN
Experimental: as §1

T2 sequence (P08684 whole entry): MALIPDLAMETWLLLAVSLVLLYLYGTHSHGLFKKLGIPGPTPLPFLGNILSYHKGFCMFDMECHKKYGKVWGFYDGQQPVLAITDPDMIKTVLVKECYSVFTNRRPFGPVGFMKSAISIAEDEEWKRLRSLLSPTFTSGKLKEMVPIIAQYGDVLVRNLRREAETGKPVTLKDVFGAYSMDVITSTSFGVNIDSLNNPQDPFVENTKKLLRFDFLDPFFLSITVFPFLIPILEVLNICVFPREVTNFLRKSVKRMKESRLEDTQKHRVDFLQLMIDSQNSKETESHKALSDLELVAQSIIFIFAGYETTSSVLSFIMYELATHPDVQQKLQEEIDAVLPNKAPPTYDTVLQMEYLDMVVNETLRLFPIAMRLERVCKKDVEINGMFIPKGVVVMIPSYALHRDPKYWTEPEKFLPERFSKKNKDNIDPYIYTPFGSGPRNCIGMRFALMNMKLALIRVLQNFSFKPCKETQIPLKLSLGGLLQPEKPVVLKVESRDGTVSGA

SMILES	EC90 (AhR; Plate 2)	EC50 (AhR; human HepG2 cells, Plate 2)	% Compound Metabolized at 30 min, CYP3A4 Inhibitor (CYP3A4)	% Inhibition Relative to Negative Control, 3A4 (CYP3A4)	% Compound Metabolized at 30 min, No Inhibitor [1]	% Compound Metabolized at 30 min, CYP1A2 Inhibitor (CYP1A2)	% Inhibition Relative to Negative Control, 1A2 (CYP1A2)	EC90 (AhR; Plate 1)	EC50 (AhR; human HepG2 cells, Plate 1)	fold more potent than ARI-164 by EC50 (AhR; human HepG2 cells)	fold more potent than ARI-164 by EC90 (AhR; human HepG2 cells)	fold more potent than ARI-187 by EC50 (AhR; human HepG2 cells)	fold more potent than ARI-187 by EC90 (AhR; human HepG2 cells)	metabolic turnover (in words) [1]	fold more potent than ARI-219 by EC50 (AhR; human HepG2 cells)	fold more potent than ARI-219 by EC90 (AhR; human HepG2 cells)
CCC(=O)c1csc(C(=O)c2c[nH]c3cc(F)ccc23)n1 [ARI-143, 1-(2-(6-fluoro-1H-indole-3-carbonyl)thiazol-4-yl)propan-1-one]	347 nM	95.2 nM	82% and 92%	None	69% and 91%	32% and 17%	54% and 81%	–	–	–	–	–	–	–	–	–
CC[C@H](O)c1csc(C(=O)c2c[nH]c3cc(F)ccc23)n1 [ARI-164, (S)-(6-Fluoro-1H-indol-3-yl)(4-(1-hydroxypropyl)thiazol-2-yl)methanone]	138 nM	104 nM	34%	8%	37%	4%	89%	134 nM	104 nM	–	–	–	–	–	–	–
CC[C@H](N)c1csc(C(=O)c2c[nH]c3cc(F)ccc23)n1 [ARI-186, (S)-(4-(1-aminopropyl)thiazol-2-yl)(6-fluoro-1H-indol-3-yl)methanone]	–	–	12%	8%	13%	10%	23%	7.4 nM	5.8 nM	17.8 ×	18.0 ×	9.5 × and 9.6 ×	20.5 × and 20.6 ×	very low turnover	–	–
CC[C@@H](N)c1csc(C(=O)c2c[nH]c3cc(F)ccc23)n1 [ARI-187, (R)-(4-(1-aminopropyl)thiazol-2-yl)(6-fluoro-1H-indol-3-yl)methanone]	–	–	3%	25%	4%	7%	None	152 nM	55.6 nM	–	–	–	–	–	–	–
O=C(c1nc([C@@H](O)C(F)(F)F)cs1)c1c[nH]c2cc(F)ccc12 [ARI-211]	–	–	59%	None	50%	67%	None	183 nM	35.9 nM	–	–	–	–	–	–	–
O=C(c1nc([C@H](O)C(F)(F)F)cs1)c1c[nH]c2cc(F)ccc12 [ARI-212]	–	–	24%	44%	43%	51%	None	150 nM	21.9 nM	–	–	–	–	–	–	–
CC[C@H](N)c1csc(C(=O)c2c[nH]c3ccc(F)cc23)n1 [ARI-218]	7.9 nM	6.3 nM	0%	100%	16%	17%	None	–	–	–	–	–	–	–	19.7 ×	53 ×
CC[C@@H](N)c1csc(C(=O)c2c[nH]c3ccc(F)cc23)n1 [ARI-219]	419 nM	124 nM	23%	None	13%	5%	62%	–	–	–	–	–	–	–	–	–
CC(C)(O)c1csc(C(=O)c2c[nH]c3cc(F)ccc23)n1 [ARI-220, (6-fluoro-1H-indol-3-yl)(4-(2-hydroxypropan-2-yl)thiazol-2-yl)methanone]	476 nM	372 nM	27%	34%	41%	0%	100%	–	–	–	–	–	–	–	–	–
O=C(c1nc(C2(O)CC2)cs1)c1c[nH]c2cc(F)ccc12 [ARI-221, (6-fluoro-1H-indol-3-yl)(4-(1-hydroxycyclopropyl)thiazol-2-yl)methanone]	34.5 nM	26.1 nM	82%	14%	95%	28%	71%	–	–	–	–	–	–	–	–	–
N[C@H](c1csc(C(=O)c2c[nH]c3cc(F)ccc23)n1)C(F)(F)F [ARI-223]	103 nM	22.6 nM	42%	47%	79%	12%	85%	–	–	–	–	–	–	high turnover	–	–
